In patent publication EP0908457B1, “3-(1,2-benzisothiazol- and isoxazol-5-Y1)-2,4(1H,3H)-pyrimidinedione or thione and 3-(1,2-benzisothiazol- and isoxazol-5-y1)-4(3H)-pyrimidinone or thione herbicidal agents” (BASF AKTIENGESELLSCHAFT, priority 1997, dated 1999):

Experiments:
Sagittaria pygmaea, L. = assay: Preemergence weed control under flooded paddy conditions, SAGPY (Arrowhead (Pygmaea)); type: in vivo; settings: preemergence, flooded paddy, rated three to four weeks after treatment
Cyperus iria = assay: Preemergence weed control under flooded paddy conditions, CYPIR (Rice Flatsedge); type: in vivo; settings: preemergence, flooded paddy, rated three to four weeks after treatment
[1] = test system: Echinochloa oryzoides (Ard.) Fritsch.; assay: Preemergence weed control under flooded paddy conditions, ECHORC (Watergrass (Calif.)); type: in vivo; settings: preemergence, flooded paddy, rated three to four weeks after treatment
[2] = test system: Monochoria vaginalis, Presl.; assay: Preemergence weed control under flooded paddy conditions, MOOVA (Monochoria); type: in vivo; settings: preemergence, flooded paddy, rated three to four weeks after treatment
[3] = test system: Oryza sativa, (L.) Tebonnet; assay: Rice tolerance to post-transplant applications under flooded paddy conditions (Example 187), ORYSAT (Rice, Tebonnet); settings: rated three to four weeks after treatment
[4] = test system: Cyperus serotinus, Rottb.; assay: Preemergence weed control under flooded paddy conditions, CYPSE (Flatsedge); type: in vivo; settings: preemergence, rated three to four weeks after treatment
Further: meaning of each grade not given here.

SMILES | herbicidal effect rating, SAGPY (Sagittaria pygmaea, L.; Rate 0.0320 kg/ha) | herbicidal effect rating, SAGPY (Sagittaria pygmaea, L.; Rate 0.0620 kg/ha) | herbicidal effect rating, SAGPY (Sagittaria pygmaea, L.; Rate 0.1250 kg/ha) | herbicidal effect rating, SAGPY (Sagittaria pygmaea, L.; Rate 0.2500 kg/ha) | herbicidal effect rating, CYPIR (Cyperus iria; Rate 0.0320 kg/ha) | herbicidal effect rating, CYPIR (Cyperus iria; Rate 0.0620 kg/ha) | herbicidal effect rating, CYPIR (Cyperus iria; Rate 0.1250 kg/ha) | herbicidal effect rating, CYPIR (Cyperus iria; Rate 0.2500 kg/ha) | herbicidal effect rating, ECHORC ([1]; Rate 0.0320 kg/ha) | herbicidal effect rating, ECHORC ([1]; Rate 0.0620 kg/ha) | herbicidal effect rating, ECHORC ([1]; Rate 0.1250 kg/ha) | herbicidal effect rating, ECHORC ([1]; Rate 0.2500 kg/ha) | herbicidal effect rating, MOOVA ([2]; Rate 0.0320 kg/ha) | herbicidal effect rating, MOOVA ([2]; Rate 0.0620 kg/ha) | herbicidal effect rating, MOOVA ([2]; Rate 0.1250 kg/ha) | herbicidal effect rating, MOOVA ([2]; Rate 0.2500 kg/ha) | herbicidal effect rating ORYSAT ([3]; Rate 0.0320 kg/ha) | herbicidal effect rating ORYSAT ([3]; Rate 0.0620 kg/ha) | herbicidal effect rating ORYSAT ([3]; Rate 0.1250 kg/ha) | herbicidal effect rating ORYSAT ([3]; Rate 0.2500 kg/ha) | further results
CCCCCCCCCCCCS(=O)(=O)NC(=O)c1nsc2ccc(-n3c(=O)cc(C(F)(F)F)n(C)c3=O)cc12 [Example 358, 1,2-Benzisothiazole-3-carboxamide, 5-[3,6-dihydro-3-methyl-2,6-dioxo-4-(trifluoromethyl)-1(2H)-pyrimidinyl]-N-(dodecylsulfonyl)-] | 5.0 | 5.0 | 6.0 | 6.0 | 0.0 | 0.0 | 0.0 | 7.0 | 4.0 | 5.0 | 5.0 | 5.0 | 9.0 | 9.0 | 9.0 | 9.0 | 2.0 | 3.0 | 3.0 | 3.0 | herbicidal effect rating, CYPSE ([4]; Rate 0.0320 kg/ha): 0.0; herbicidal effect rating, CYPSE ([4]; Rate 0.0620 kg/ha): 0.0; herbicidal effect rating, CYPSE ([4]; Rate 0.1250 kg/ha): 0.0; herbicidal effect rating, CYPSE ([4]; Rate 0.2500 kg/ha): 0.0
Cn1c(C(F)(F)F)cc(=O)n(-c2ccc3snc(/C=C/CBr)c3c2)c1=O [Example 360, 2,4(1H,3H)-Pyrimidinedione, 3-[3-(3-bromopropenyl)-1,2-benzisothiazol-5-yl]-1-methyl-6-(trifluoromethyl)-, (E)-] | 1.5 | 4.5 | 4.5 | 9.0 | 0.0 | 2.5 | 9.0 | 9.0 | 0.0 | 2.0 | 5.0 | 7.5 | 4.5 | 4.5 | 4.5 | 9.0 | 1.0 | 2.0 | 3.5 | 9.0 | herbicidal effect rating, SAGPY (Sagittaria pygmaea, L.; Rate 0.5000 kg/ha): 9.0; herbicidal effect rating, CYPIR (Cyperus iria; Rate 0.5000 kg/ha): 9.0; herbicidal effect rating, ECHORC ([1]; Rate 0.5000 kg/ha): 9.0; herbicidal effect rating, MOOVA ([2]; Rate 0.5000 kg/ha): 9.0; herbicidal effect rating ORYSAT ([3]; Rate 0.5000 kg/ha): 9.0; herbicidal effect rating, CYPSE ([4]; Rate 0.0320 kg/ha): 0.0; herbicidal effect rating, CYPSE ([4]; Rate 0.0620 kg/ha): 0.0; herbicidal effect rating, CYPSE ([4]; Rate 0.1250 kg/ha): 0.0; herbicidal effect rating, CYPSE ([4]; Rate 0.2500 kg/ha): 9.0
CN(C(=O)c1nsc2ccc(-n3c(=O)cc(C(F)(F)F)n(C)c3=O)cc12)c1ccc(Cl)cc1 [Example 365, 1,2-Benzisothiazole-3-carboxanilide, 4'-chloro-5-[3,6-dihydro-3-methyl-2,6-dioxo-4-(trifluoromethyl)-1(2H)-pyrimidinyl]-N-methyl-] | 3.0 | 5.0 | 5.0 | 5.0 | 4.0 | 6.0 | 6.0 | 9.0 | 4.0 | 6.0 | 9.0 | 9.0 | 9.0 | 9.0 | 9.0 | 9.0 | 3.0 | 5.0 | 5.0 | 5.0 | herbicidal effect rating, SAGPY (Sagittaria pygmaea, L.; Rate 0.5000 kg/ha): 6.0; herbicidal effect rating, CYPIR (Cyperus iria; Rate 0.5000 kg/ha): 9.0; herbicidal effect rating, ECHORC ([1]; Rate 0.5000 kg/ha): 9.0; herbicidal effect rating, MOOVA ([2]; Rate 0.5000 kg/ha): 9.0; herbicidal effect rating ORYSAT ([3]; Rate 0.5000 kg/ha): 6.0; herbicidal effect rating, CYPSE ([4]; Rate 0.0320 kg/ha): 4.0; herbicidal effect rating, CYPSE ([4]; Rate 0.0620 kg/ha): 4.0; herbicidal effect rating, CYPSE ([4]; Rate 0.1250 kg/ha): 4.0; herbicidal effect rating, CYPSE ([4]; Rate 0.2500 kg/ha): 9.0; herbicidal effect rating, CYPSE ([4]; Rate 0.5000 kg/ha): 9.0
Cc1nsc2cc(F)c(-n3c(=O)cc(C(F)(F)F)n(C)c3=O)cc12 [Example 366, 2,4(1H,3H)-Pyrimidinedione, 3-(6-fluoro-3-methyl-1,2-benzisothiazol-5-yl)-1-methyl-6-(trifluoromethyl)-] | 7.0 | 8.0 | 9.0 | 9.0 | 8.5 | 9.0 | 9.0 | 9.0 | 8.0 | 8.5 | 9.0 | 9.0 | 9.0 | 9.0 | 9.0 | 9.0 | 7.5 | 9.0 | 9.0 | 9.0 | herbicidal effect rating, SAGPY (Sagittaria pygmaea, L.; Rate 0.5000 kg/ha): 9.0; herbicidal effect rating, CYPIR (Cyperus iria; Rate 0.5000 kg/ha): 9.0; herbicidal effect rating, ECHORC ([1]; Rate 0.5000 kg/ha): 9.0; herbicidal effect rating, MOOVA ([2]; Rate 0.5000 kg/ha): 9.0; herbicidal effect rating ORYSAT ([3]; Rate 0.5000 kg/ha): 9.0; herbicidal effect rating, CYPSE ([4]; Rate 0.0320 kg/ha): 8.0; herbicidal effect rating, CYPSE ([4]; Rate 0.0620 kg/ha): 8.0; herbicidal effect rating, CYPSE ([4]; Rate 0.1250 kg/ha): 9.0; herbicidal effect rating, CYPSE ([4]; Rate 0.2500 kg/ha): 9.0; herbicidal effect rating, CYPSE ([4]; Rate 0.5000 kg/ha): 9.0
